Measurements from US20090076136A1, “THERAPEUTIC AGENT” (priority 2003, published 2009).
Like-named read-outs stand apart in the source and are kept apart here.

Experiments:
[1] = tested on: mature adipocytes (3T3-L1 cells); test: Enhancing action on glucose uptake: 2-deoxyglucose uptake into mature adipocytes; assay type: cell-based
Procedure: The induction of differentiation into mature adipocytes was carried out by partially modifying the method of Rubin C. S. et al. (JBC. 253 7570-7578, 1978). 3T3-L1 cells (ATCC CCL-92.1) were suspended in a 10% calf serum (manufactured by ICN)-containing Dulbecco's modified Eagle's medium (manufactured by Sigma, D6046) containing 200 μM ascorbic acid so as to have a density of 4×10^3 cells/mL, and the suspension was put in each well of a 12-well microtiter plate in an amount of 2 mL per well. The cells were cultured at 37° C. for 7 days in the presence of 5% carbon dioxide gas. On the seventh day, the medium was exchanged with […] of a 10% fetal bovine serum (manufactured by GIBCO)-containing Dulbecco's modified Eagle's medium containing 200 μM ascorbic acid, 0.25 μM dexamethasone, 10 μg/mL insulin (manufactured by TAKARA BIO INC.) and 0.5 mM 3-isobutyl-1-methylxanthine (manufactured by Nacalai Tesque, Inc., 19624-86). After 45 hours, the medium was exchanged with 2 mL of a 10% fetal bovine serum-containing Dulbecco's modified Eagle's medium containing 200 μM ascorbic acid and 5 μg/mL insulin. The medium was exchanged on after 2 days and 5 days, and the cells were cultured for 7 days, to give mature adipocytes.
As the evaluation of enhancing action on glucose uptake, and also as the evaluation of insulin-mimetic action, the amount of 2-deoxyglucose uptake into mature adipocytes stimulated with the sample in the adipocytes was determined.
After the termination of the culture, the medium was removed, and the cells were washed twice with a 0.1% (w/v) bovine serum albumin (manufactured by Sigma, A8022)-containing Dulbecco's modified Eagle's medium. Thereafter, 1 mL of the same medium was put to each well. The cells were cultured overnight at 37° C. in the presence of 5% carbon dioxide gas. After the overnight culture, the cells were washed twice with a HEPES buffered saline (140 mM NaCl, 5 mM KCl, 2.5 mM MgSO4, 1 mM CaCl2, 20 mM HEPES-Na (pH 7.4)), and 0.9 mL of the same buffer was added thereto. The cells were cultured at 37° C. for 75 minutes. […] […] Thereafter, 100 μL of a HEPES buffered saline containing 2-deoxy-[1,2-^3H(N)]-glucose (manufactured by PerkinElmer Life Sciences Inc., NET549A) and 1 mM 2-deoxyglucose (manufactured by Nacalai Tesque, Inc., 10722-11) was added thereto at a final concentration of 0.5 μCi/mL, and the cells were further cultured at 37° C. for 10 minutes. After the termination of the culture, the supernatant was removed, the cells were washed three times with a phosphate buffer cooled to 4° C., and 0.5 mL of a 1% Nonidet P-40-containing phosphate buffer was added to lyse the cells, whereby 2-deoxy-[1,2-^3H(N)]-glucose taken into the cells was eluted. The radioactivity was determined with a liquid scintillation counter LS6500 (manufactured by Beckmann) using 25 μL of the supernatant with Ultima Gold (manufactured by PerkinElmer Life Sciences Inc., 6013329) as a scintillation cocktail.

[2] = tested on: mature adipocytes (3T3-L1 cells); test: Synergistic enhancing action by polygodial and insulin on glucose uptake; assay type: cell-based; conditions: FIG. 21
Procedure: The amount of 2-deoxyglucose uptake into mature adipocytes stimulated with the sample in the adipocytes was determined partly in accordance with the method described in Example 1 as the evaluation of synergistic enhancing action by a low-concentration polygodial and a low-concentration insulin on glucose uptake.
The mature adipocytes were prepared according to the method described in Example 1.
After the termination of the culture, the medium was removed, and the cells were washed twice with a Dulbecco's modified Eagle's medium containing 0.1% (w/v) bovine serum albumin. Thereafter, the cells were cultured at 37° C. overnight in the presence of 5% carbonic dioxide gas. After the overnight culture, the cells were washed twice with a HEPES buffered saline (140 mM NaCl, 5 mM KCl, 2.5 mM MgSO4, 1 mM CaCl2, 20 mM HEPES-Na (pH 7.4)). The amount 0.9 mL of the same buffer was added thereto. The cells were cultured at 37° C. for 45 minutes. Subsequently, polygodial was added thereto so as to have a final concentration of 300 nM, and insulin was added thereto so as to have a final concentration of 0.05 μg/mL. The cells were further cultured for 30 minutes. […] In addition, a group without addition of the sample was used as a negative control. Thereafter, the amount of 2-deoxy-[1,2-^3H(N)]-glucose taken into the adipocytes was determined in the same manner as in the method described in Example 1.

[3] = tested on: glucose transporter (mature adipocytes); test: Influence of cytochalasin B on 2-deoxyglucose uptake in mature adipocytes; assay type: cell-based
Procedure: Specifically, as a sample, there was set a group with addition of a dimethyl sulfoxide solution of polygodial so as to have a final concentration of 3 μM. […] Furthermore, in each group, there was set a group with addition of cytochalasin B (manufactured by Nacalai Tesque, Inc., 10435-81) so as to have a final concentration 40 μM at the same time as the time of addition of the sample and insulin. Thereafter, the amount of 2-deoxy-[1,2-^3H(N)]-glucose taken into the adipocytes was determined in the same manner.

KK-Ay mice = tested on: KK-Ay mice
Procedure: Pathological amelioration of polygodial was examined using a type II diabetes model mice. Experiments were carried out with ten male 5-week old KK-Ay mice (CLEA Japan, Inc.) per group. Polygodial was dissolved in an olive oil so as to have a concentration of 0.03%, and the solution was forcibly orally administered to the mice once a day at 1 mg/kg weight for consecutive days. An olive oil was administered to each of mice in the control group at 3.3 mL/kg weight in the same manner. On the day before the beginning of administration and on the twenty-first day, blood was collected from the vein of mouse tails, and a blood glucose level was determined with a simple blood glucose meter, ACCU-CHEK Compact (manufactured by Roche Diagnostics K.K.). In addition, on the twenty-second day, blood was collected from the abdominal aorta, and the insulin concentration in serum was determined with Lebis Insulin Kit (manufactured by Shibayagi Co., Ltd.).

ICR mice = conditions: for Blood Glucose Level, Before Administration of Sample: ICR mice fasted 18 hours, Mean ± Standard Error; for Blood Glucose Level, Before Glucose Tolerance Test: 1 hour after
Procedure: After fasting the mice for 18 hours, polygodial was dissolved in an olive oil so as to have a concentration of 0.3%, and the solution was forcibly orally administered to the mice at 10 mg/kg weight. An olive oil was administered to each of mice in the control group at 3.3 mL/kg weight in the same manner. After 1 hour from the administration, a 20% glucose solution was administered at 2 g/kg weight. Here, the glucose was administered in two ways, forcible oral administration and intraperitoneal administration. Before administration of the sample, before the glucose tolerance test, and after given periods of time after the glucose tolerance test, blood was collected from the vein of mouse tails, and a blood glucose level was determined.

mouse = test: Single-dose oral toxicity in mouse; assay type: in vivo; conditions: 1 g/kg weight
Procedure: No toxicity is found even when the above-mentioned effective ingredient used in the present invention is administered in an effective dose for the exhibition of its action.

[4] = 1 mg/kg weight orally once a day, KK-Ay mice
[5] = polygodial 10 mg/kg orally, glucose 2 g/kg by forcible oral administration
[6] = polygodial 10 mg/kg orally, glucose 2 g/kg by intraperitoneal administration

Compound: CC1(C)CCC[C@]2(C)[C@@H](C=O)C(C=O)=CC[C@@H]12 [polygodial]
- 2-deoxy-[1,2-3H(N)]-glucose uptake compared to the negative control ([1]; final concentration 3 μM, 1 μM, 0.3 μM or 0.1 μM, FIG. 1): enhancement of 2-deoxy-[1,2-^3H(N)]-glucose uptake was found
- enhancing action on glucose uptake by simultaneous addition with insulin ([2]; polygodial 300 nM added simultaneously with insulin 0.05 μg/mL, versus either alone): synergistically increase
- 2-deoxy-[1,2-3H(N)]-glucose uptake compared to the negative control ([2]; polygodial 300 nM alone): enhancement of 2-deoxy-[1,2-^3H(N)]-glucose uptake was found
- 2-deoxy-[1,2-3H(N)]-glucose uptake compared to the negative control [3]: enhancement of 2-deoxy-[1,2-^3H(N)]-glucose uptake was found
- mediation of the enhancing action on glucose uptake [3]: mediated by a glucose transporter
- action of ameliorating insulin resistance (KK-Ay mice; [4]): action of ameliorating insulin resistance was found
- blood glucose level (in words) (KK-Ay mice; [4]): lowered
- insulin concentration (in words) (KK-Ay mice; [4]): lowered
- Blood Glucose Level, Twenty-First Day (KK-Ay mice; 1 mg/kg weight orally once a day, twenty-first day, KK-Ay mice, Mean ± Standard Error): 231 ± 36 mg/dL
- Insulin (concentration in serum) (KK-Ay mice; 1 mg/kg weight orally once a day, twenty-second day, KK-Ay mice, Mean ± Standard Error): 8.4 ± 4 ng/mL
- Blood Glucose Level, Previous Day (KK-Ay mice; day before the beginning of administration, KK-Ay mice, Mean ± Standard Error): 328 ± 25 mg/dL
- changes in weight and general symptoms (KK-Ay mice; during the experimental period, 1 mg/kg weight orally once a day): no changes were found
- Blood Glucose Level, Before Administration of Sample (ICR mice; glucose by forcible oral administration): 94 ± 7 mg/dL
- Blood Glucose Level, Before Administration of Sample (ICR mice; glucose by intraperitoneal administration): 77 ± 4 mg/dL
- Blood Glucose Level, Before Glucose Tolerance Test (ICR mice; polygodial 10 mg/kg orally, glucose by forcible oral administration): 126 ± 7 mg/dL
- Blood Glucose Level, Before Glucose Tolerance Test (ICR mice; polygodial 10 mg/kg orally, glucose by intraperitoneal administration): 90 ± 7 mg/dL
- Blood Glucose Level, 30 min. After Glucose Tolerance Test (ICR mice; [5]): 260 ± 15 mg/dL
- Blood Glucose Level, 60 min. After Glucose Tolerance Test (ICR mice; [5]): 224 ± 18 mg/dL
- Blood Glucose Level, 120 min. After Glucose Tolerance Test (ICR mice; [5]): 138 ± 9 mg/dL
- Blood Glucose Level, 30 min. After Glucose Tolerance Test (ICR mice; [6]): 300 ± 56 mg/dL
- Blood Glucose Level, 60 min. After Glucose Tolerance Test (ICR mice; [6]): 263 ± 34 mg/dL
- Blood Glucose Level, 120 min. After Glucose Tolerance Test (ICR mice; [6]): 126 ± 10 mg/dL
- Blood Glucose Level, 180 min. After Glucose Tolerance Test (ICR mice; [6]): 84 ± 5 mg/dL
- action on the elevation in the blood glucose level (in words) (ICR mice; polygodial 10 mg/kg weight, both oral and intraperitoneal administrations of glucose): suppressive action
- deaths after oral administration (mouse): no cases of deaths are found

Compound: insulin
- 2-deoxy-[1,2-3H(N)]-glucose uptake compared to the negative control ([1]; positive control, final concentration 1 μg/mL): enhancement of 2-deoxy-[1,2-^3H(N)]-glucose uptake was found
- 2-deoxy-[1,2-3H(N)]-glucose uptake compared to the negative control ([2]; insulin 0.05 μg/mL alone): enhancement of 2-deoxy-[1,2-^3H(N)]-glucose uptake was found
- 2-deoxy-[1,2-3H(N)]-glucose uptake compared to the negative control ([3]; insulin 1 μg/mL, without cytochalasin B, FIG. 22): enhancement of 2-deoxy-[1,2-^3H(N)]-glucose uptake was found
